The text below walks through data of publication PMC6934184, “Selective DNA-PKcs inhibition extends the therapeutic index of localized radiotherapy and chemotherapy” (The Journal of Clinical Investigation, 2019).

The assay addresses T1, DDR2 N456S (Homo sapiens, UniProt Q16832, N456S).
T1 construct: purchased Thermo Fisher Scientific (Life Technologies) SelectScreen
The experiment in a line: SelectScreen LanthaScreen. Format: binding. The note with it: read-out: % displacement. In short, it runs like this: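 Percent values come from Thermo SelectScreen profiling of NU5455, combining activity and binding assays. CSF1R was run in Z'LYTE format at Km app ATP, and CAMK1 in Adapta format with ATP listed at 10.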

Molecules are shown by their SMILES.

T1 sequence (Q16832 22-855 N456S): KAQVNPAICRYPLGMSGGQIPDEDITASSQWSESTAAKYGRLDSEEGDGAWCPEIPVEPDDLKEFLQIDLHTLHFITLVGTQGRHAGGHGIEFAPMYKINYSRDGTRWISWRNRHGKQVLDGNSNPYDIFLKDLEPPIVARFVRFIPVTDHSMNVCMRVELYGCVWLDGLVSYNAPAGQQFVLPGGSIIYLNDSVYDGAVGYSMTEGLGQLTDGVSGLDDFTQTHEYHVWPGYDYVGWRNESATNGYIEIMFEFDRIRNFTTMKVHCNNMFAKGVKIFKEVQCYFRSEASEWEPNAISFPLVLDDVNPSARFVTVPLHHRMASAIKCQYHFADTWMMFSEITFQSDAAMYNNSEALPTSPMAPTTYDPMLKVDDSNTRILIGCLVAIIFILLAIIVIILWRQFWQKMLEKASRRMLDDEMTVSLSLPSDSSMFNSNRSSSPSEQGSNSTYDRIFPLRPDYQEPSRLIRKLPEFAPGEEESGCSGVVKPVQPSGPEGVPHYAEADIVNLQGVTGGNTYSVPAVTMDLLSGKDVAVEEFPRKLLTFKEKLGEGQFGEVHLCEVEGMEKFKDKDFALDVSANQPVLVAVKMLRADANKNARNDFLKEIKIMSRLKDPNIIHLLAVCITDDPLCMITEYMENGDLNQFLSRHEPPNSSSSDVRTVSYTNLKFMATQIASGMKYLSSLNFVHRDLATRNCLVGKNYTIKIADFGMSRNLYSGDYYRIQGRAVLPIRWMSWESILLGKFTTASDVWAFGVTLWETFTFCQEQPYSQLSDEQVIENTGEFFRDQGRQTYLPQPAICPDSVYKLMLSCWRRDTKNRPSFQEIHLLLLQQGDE

Regarding `CN(C(=O)CN1CCOCC1)c1ccc2sc3c(-c4cccc5c(=O)cc(N6CC7CCC(C6)O7)oc45)cccc3c2c1` [NU5455], the inhibition at 1 µM turned out to be 0.5%.
